Values quoted from earlier work as cited in US20090304721A1, “TOXIN […] RECEPTOR ANTIBODIES” (priority 2005, published 2009).

Conditions: compared with vincristine and vinblastine; cited from earlier work

COc1cc2cc(c1Cl)N(C)C(=O)C[C@H](OC(=O)[C@H](C)N(C)C(C)=O)[C@]1(C)O[C@H]1[C@H](C)[C@@H]1C[C@@](O)(NC(=O)O1)[C@H](OC)/C=C/C=C(\C)C2 [Maytansine]
cytotoxicity in vitro relative to vinca alkaloids: 200 to 1,000 fold
